# Measurements taken from EP2439195B1, “NAPHTHALENE CARBOXAMIDE DERIVATIVES AS INHIBITORS OF PROTEIN KINASE AND HISTONE DEACETYLASE, PREPARATION METHODS AND USES THEREOF” (Shenzhen Chipscreen Biosciences, Ltd., priority 2009, dated 2010).
# Experiments:
# [1] = test system: A549; assay: Tumor cell proliferation (MTS), A549; format: cell-based; settings: Homo sapiens; A549, 72 hours; read-out: Gl50 µM in A549
# Procedure: (§1) Tumor cells were trypsinized and plated into 96-well plates at 3,000 per well and incubated in complete medium with 10% FBS for 24 hours. Compounds to be tested and vehicle control were added, and the final concentration of compound is in the range of 100 nmol/L to 100 µmol/L. The compounds were incubated for 72 hours in complete medium. The MTS reagent (Promega) was added according to the instruction, incubated for 2 hours at 37°C in CO2 incubator. Then absorbance at 490nm is read using an ELISA plate reader.
# [2] = test system: total HDAC enzyme; assay: In vitro total HDAC enzyme activity (HDAC Fluorimetric Assay/Drug Discovery Kit, HeLa cell nuclear extract); format: biochemical
# Procedure: The in vitro total HDAC enzyme activity was determined by HDAC Fluorimetric Assay/Drug Discovery Kit (BIOMOL) according to manufacture's instruction. The principle of the experiment is as follows: under the action of histone deacetylase (in the experiment, HeLa cell nuclear extract, which was rich in a variety of subtypes of HDAC, was used), an acetyl group is removed from a special substrate Fluor de Lys, thus the free amino is exposed. Upon Developer is added, the substrate will produce fluorescence. For the fluorescence, excitation wavelength is 360nm, and emission wavelength is 460nm. More fully the substrate deacetylated, more higher the fluorescence induced. In the absence of inhibitors, the fluorescence value is taken as the control; when inhibitor is existed, fluorescence value induced will be reduced, while in the case no enzyme is existed (corresponding to the completely inhibition of enzyme activity) the fluorescence value is blank. Generally, after suppression the fluorescence values will be between the control and blank. When analysis is made, blank will be used as 0, and the control will be used as 1. Smaller value means higher inhibitory activity. 1. Add Assay buffer, diluted trichostatin A and test inhibitor to appropriate wells of the microtiter plate. Following table lists the amounts used for each regent of various assay types.
# 2. Add diluted HeLa nucleoprotein extract to all wells except those that are marked as "blank". 3. Allow diluted Fluor de Lys™ Substrate and the samples in the microtiter plate to equilibrate to 25°C. 4. Initiate HDAC reactions by adding diluted substrate (25 µl) to each well and mixing thoroughly. 5. Allow reactions to proceed for 30 minutes and then stop them by addition of Fluor de Lys™ Developer (50 µl). Incubate plate at room temperature (25°C) for 10-15 min. 6. Read fluorescence of samples on a microtiter-plate reading fluorimeter at a excitation wavelength of 369 nm and a emitted wavelength of 451 nm.
# [3] = test system: HUVEC cells; assay: VEGF dependent cell proliferation (MTS); format: cell-based; settings: Homo sapiens, VEGF 165 (50ng/ml), 72 hours, serum-free medium, read-out: Gl50 nM (VEGF ligand-dependent cell proliferation)
# Procedure: HUVEC cells were plated into 96-well plates at 6,000 per well and after 24 hours incubated with serum-free medium for 2 hours. Compounds to be tested and VEGF 165 (50ng/ml) were added and incubated for 72 hours in serum-free medium. The effects on cell proliferation were determined by MTS method (Promega) according to the instruction. Incubation was performed for 2 hours at 37°C in CO2 incubator, and absorbance at 490nm was determined using an ELISA plate reader.
# [4] = molecular target: T1, human PDGFRβ (Homo sapiens, UniProt P09619); assay: PDGF dependent cell proliferation (MTS); format: cell-based; settings: PDGFRβ NIH-3T3 cells, PDGF BB (50ng/ml), 72 hours, serum-free medium; read-out: Gl50 nM (PDGF ligand-dependent cell proliferation)
# T1 construct: expressed in transfected cells
# Procedure: NIH-3T3 mouse fibroblasts cell line engineered to stably express human PDGFRβ was constructed and used to evaluate PDGF dependent cell proliferation. PDGFRβ NIH-3T3 cells were plated into 96-well plates at 5,000 per well and incubated overnight with serum-free medium after 24 hours. Compounds to be tested and PDGF BB (50ng/ml) were added and incubated for 72 hours in serum-free medium. The effects on proliferation were determined by MTS method (Promega) according to the instruction. Incubation was performed for 2 hours at 37°C in CO2 incubator, and absorbance at 490nm was measured using an ELISA plate reader.
# [5] = test system: Bel-7402; assay: Tumor cell proliferation (MTS), Bel-7402; format: cell-based; settings: Homo sapiens; Bel-7402, 72 hours; read-out: Gl50 µM in Bel-7402
# Procedure: as §1
# [6] = test system: MCF-7; assay: Tumor cell proliferation (MTS), MCF-7; format: cell-based; settings: Homo sapiens, MCF7; MCF-7, 72 hours; read-out: Gl50 µM in MCF-7
# Procedure: as §1
# [7] = test system: HCT-8; assay: Tumor cell proliferation (MTS), HCT-8; format: cell-based; settings: Homo sapiens; HCT-8, 72 hours; read-out: Gl50 µM in HCT-8
# Procedure: as §1
# [8] = test system: A-498; assay: Tumor cell proliferation (MTS), A-498; format: cell-based; settings: Homo sapiens, A498; A-498, 72 hours; read-out: Gl50 µM in A-498
# Procedure: as §1
# [9] = test system: Class I HDAC; assay: HDAC subtype selectivity reporter gene assay (P21 reporter, HeLa cells); format: cell-based; settings: Homo sapiens; 10µM; HeLa cells, 24 hours; read-out: Class I HDAC (P21 reporter assay) Fold Induction at 10µM
# Procedure: Different HDAC subtypes can bind with different transcriptional factors and involve in expression regulation of various genes. Suitable regulation elements for transcriptional factors are selected to construct reporter genes, which can be used to evaluate the selective inhibition of inhibors on HDAC subtypes. Briefly, HeLa cells were seeded in 96-well plates the day before transfection to give a confluence of 50-80% when transfection. Cells were transfected with one of reporter gene plasmid containing a p21-promoter sequence or response element upstream of a luciferase gene construct using FuGene6 transfection reagent according to the manufacturer's instruction (Roche). For normalizing the transfection efficiency, a GFP expression plasmid was cotransfected. After 24 hours compounds or the vehicle control (DMSO) were added. 24 hours later the cells were harvested and lysed, and the amount of the luciferase was evaluated using luciferase assay kits (Promega) according to the manufacturer's instructions.
# T1 sequence (P09619 33-1106): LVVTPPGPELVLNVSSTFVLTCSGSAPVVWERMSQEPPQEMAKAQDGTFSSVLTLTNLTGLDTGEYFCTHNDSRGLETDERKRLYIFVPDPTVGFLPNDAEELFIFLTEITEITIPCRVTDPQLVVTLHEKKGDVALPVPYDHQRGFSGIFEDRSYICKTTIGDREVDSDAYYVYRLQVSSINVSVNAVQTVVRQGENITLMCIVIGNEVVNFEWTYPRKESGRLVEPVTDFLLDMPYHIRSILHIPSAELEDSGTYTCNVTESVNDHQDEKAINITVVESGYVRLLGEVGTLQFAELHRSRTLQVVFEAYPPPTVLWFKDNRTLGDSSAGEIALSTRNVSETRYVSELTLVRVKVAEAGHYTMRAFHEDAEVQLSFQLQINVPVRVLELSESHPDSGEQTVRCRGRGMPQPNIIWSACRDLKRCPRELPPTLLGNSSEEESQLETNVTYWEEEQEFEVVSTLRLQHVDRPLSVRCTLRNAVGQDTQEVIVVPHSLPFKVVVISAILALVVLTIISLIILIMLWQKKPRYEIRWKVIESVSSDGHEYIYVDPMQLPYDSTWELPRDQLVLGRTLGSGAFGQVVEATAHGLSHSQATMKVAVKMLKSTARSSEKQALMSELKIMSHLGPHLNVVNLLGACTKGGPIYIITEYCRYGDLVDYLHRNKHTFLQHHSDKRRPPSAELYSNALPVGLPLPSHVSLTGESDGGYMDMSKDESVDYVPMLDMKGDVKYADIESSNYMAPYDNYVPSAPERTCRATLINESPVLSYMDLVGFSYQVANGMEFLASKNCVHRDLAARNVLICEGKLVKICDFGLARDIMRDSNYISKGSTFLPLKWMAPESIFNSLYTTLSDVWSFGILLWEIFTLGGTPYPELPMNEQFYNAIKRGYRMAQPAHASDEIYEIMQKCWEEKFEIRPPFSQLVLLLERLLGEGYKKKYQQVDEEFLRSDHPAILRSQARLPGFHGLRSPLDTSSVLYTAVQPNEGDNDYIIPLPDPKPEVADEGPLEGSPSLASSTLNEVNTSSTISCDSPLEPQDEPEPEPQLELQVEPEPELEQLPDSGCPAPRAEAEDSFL
SMILES,IC50 [1] [µM],% inhibition of total HDAC enzyme activity at 30µM [2] [%],IC50 [3] [µM],IC50 [4] [µM],IC50 [5] [µM],IC50 [6] [µM],IC50 [7] [µM],IC50 [8] [µM],fold induction at 10 µM [9]
"COc1ccc2c(Oc3ccc4c(C(=O)Nc5ccccc5N)cccc4c3)ccnc2c1 [Compound 31, N-(2-aminophenyl)-6-(7-methoxyquinolin-4-yloxy)-1-naphthamide]",17.3,10.1,0.005,0.046,30,10.2,6.6,9.5,1.6
"COc1ccc2c(Oc3ccc4c(C(=O)NCc5ccc(C(=O)Nc6ccccc6N)cc5)cccc4c3)ccnc2c1 [Compound 33, N-(4-((2-aminophenyl)carbamoyl)benzyl)-6-(7-methoxyquinolin-4-yloxy)-1-naphthamide]",2.1,39.1,0.008,0.3,2.8,2,1.5,1.9,2.8
